Source: patent US10813904B2, “Small molecule anticancer agents” (University of Florida Research Foundation, Incorporated, priority 2017, dated 2020)
“Also recorded” adds a separate entry of the source.

Assays:
Assay type in all cases: cell-based
[1] = test system: BT474 cells; experiment: Immunoblot analysis of BT474 cell extracts
Method: (§1) The following cell lines were purchased from American Type Culture Collection (ATCC) (Manassas, Va.): MDA-MB-468, BT474, T47D, SKBR3, MDA-MB-231, HCC1954, HEK 293, TSC2-Ang1, and BxPC3. The HCI-012 cell line was derived from the HCI-012 Patient-Derived Xenograft tumor line provided by Dr. Alana Welm using conditional cell reprogramming. Wild type and eIF2α[S51A] homozygous knock-in Mouse Embryo Fibroblasts (MEFs) were described previously.
(§2) Cells were grown in Dulbecco's modified Eagle's medium (GE Healthcare Life Sciences Logan, Utah) supplemented with 10% fetal bovine serum (10% FBS-DMEM) in a humidified 37° C. incubator with 5% CO2. Cell lysates were prepared using a buffer containing 1% Triton X100, 20 mM HEPES (pH 7.4), 1 mM EDTA, 1 mM EGTA, 0.1% 3-mercaptoethanol, 5% glycerol, 10 nM microcystin, 200 μM Na3VO4 and 40 mM Na2H2P2O7 as described previously.
(§3) Immunoblot analysis was carried out using primary antibodies purchased from Santa Cruz Biotechnology (Dallas, Tex.) [Actin, sc-1616-R; ERK, sc-93; JNK, sc-572; P-JNK, sc-6254; Src, sc-18; EGFR, sc-03; GRP78, sc-13539; Phosphotyrosine (PY99), sc-7020], Cell Signaling Technology (Beverly, Mass.) [Akt, #4691; P-Akt[T308], #13038; P-Akt[S473], #9271; ATF4, #11815; CHOP, #2895; P-Src[Y527], #2105; EGFR, #4267; HER2, #2165; HER3, #4754; Calnexin, #2679; #13024; P-Erk, #9101; IRE1α, #3294; XBP1s, #12782; PARP, #9532; PDI, #3501; PERK, #5683; S6, #2212; P-S6, #2211; P-Src[Y416], #6943], BD Transduction Laboratories (San Jose, Calif.) [PAI-1, 612024], Millipore (Temecula, Calif.) [anti-phosphotyrosine (4G10), 05-321], and Sigma-Aldrich (St. Louis, Mo.) [anti-FLAG (M2), F3165]. To quantify immunoblot results, bands were analyzed using ImageJ (imagej.nih.gov/ij/) and each band was normalized to the corresponding Actin loading control band.

[2] = test system: Mouse Embryo Fibroblasts (MEFs); experiment: Immunoblot analysis of Mouse Embryo Fibroblasts; details: 24 hours, thapsigargin 400 nM, tunicamycin 500 ng/ml; for Akt phosphorylation, wild type MEFs / ER stress response / UPR, wild type MEFs / PARP cleavage, wild type MEFs: RBF3 20 μM, DTT 5 mM
Method: as §1, §2, §3

[3] = test system: MDA-MB-468 cells; experiment: Immunoblot analysis of MDA-MB-468 cell extracts; details: for ER stress response / UPR activation / HER3 levels / Akt phosphorylation / PARP cleavage (cell death): 2-DOG 4 mM; for ER stress response / UPR activation / Akt phosphorylation / PARP cleavage (cell death): DTDO 20 μM; for ATF4 and CHOP expression: compared with 20 μM RBF3
Method: as §1, §2, §3

[4] = test system: XBP1 mRNA splicing in MDA-MB-468 cells; experiment: RT-PCR of XBP1 mRNA splicing; details: 24 hours; RBF3 20 μM, DTT 2 mM
Method: RNA was isolated from MDA-MB-468 and BT474 cells with Trizol Reagent (Invitrogen) according to the manufacturer's instructions, and reverse transcribed to cDNA under the following conditions: 25° C. for 10 min, 42° C. for 30 min, and 95° C. for 5 min. PCR was performed using XBP1 and β-Actin primers. The primers used to amplify XBP1 are as follows: Forward: […] and Reverse: […]. The primers used to amplify (3-Actin are as follows: Forward: […] and Reverse: […]. Reactions were performed as follows: 96° C. for 5 min followed by 35 cycles of 95° C. for 45 sec, 60° C. for 1 min, and 72° C. for 30 sec. Reaction products were visualized on 3% agarose gels.

[5] = test system: MDA-MB-468 or BT474 cells; experiment: Immunoblot analysis, MDA-MB-468 or BT474 cells (text does not separate the lines); details: for DDA activation of the ER stress response when protein synthesis is inhibited: 20 μM RBF3 with 20 μM CHX or 5 μg/ml Puromycin
Method: as §2, §3

[6] = test system: HCC1954 cells; experiment: Immunoblot analysis of HCC1954 cells; details: 24 hour; 20 μM RBF3, 20 μM Lapatinib
[7] = test system: T47D cells; experiment: Immunoblot analysis of T47D stable cell lines (vector, EGFR or HER2 overexpressing); details: 20 μM NSC624205, 24 hours
Method: Recombinant retroviruses were prepared and used to produce stable cell lines as described previously. Retroviral vectors encoding EGFR (plasmid 11011, [68]) and HER2 (plasmid 40978 [69]) were from Addgene (Cambridge, Mass.).
as §2, with “previously. […]” for “previously.”

[8] = test system: BT474 cells; experiment: MTT cell viability assay, BT474; details: 72 hours
Method: (§4) Cell viability was evaluated using MTT (3-(4,5-dimethylthiazol-2-yl)-2,5-diphenyltetrazolium bromide) assays carried out based on the manufacturer's instructions (kit CGD1, Sigma-Aldrich, St. Louis, Mo.)

[9] = test system: MDA-MB-468 cells; experiment: MTT cell viability assay, MDA-MB-468; details: 72 hours, increasing concentrations
Method: as §4

[10] = 24 hours, RBF3 20 μM, 2-DOG 4 mM
[11] = 24 hours, RBF3 20 μM, thapsigargin 400 nM
[12] = RBF3 20 μM, thapsigargin 400 nM, DTT 2 mM
[13] = thapsigargin 400 nM, tunicamycin 500 ng/ml, DTT 2 mM
[14] = 2.5 μM Gefitinib or Lapatinib, 24 hours
[15] = increasing concentration, 24 hours (FIG. 5B)

Compound: O[C@H](CS)[C@H](O)CS (racemic) [DTT, dithiothreitol]
- EGFR and HER2 expression ([1]; 24 hours, RBF3 20 μM): only does so in the MDA-MB-468 line
- XBP1s and GRP78 expression (ER stress markers) ([1]; 24 hours, RBF3 20 μM): increased
- Akt phosphorylation [1, 10]: decreased
- ATF4 and CHOP expression [1, 11]: little upregulation
- Akt phosphorylation, wild type MEFs [2]: weakly suppressed
- ER stress response / UPR, wild type MEFs [2]: did not induce
- PARP cleavage, wild type MEFs [2]: induced PARP cleavage
- ER stress response / UPR activation ([3]; 24 hours, DTT 2 mM): only weakly activated
- GRP78 expression ([3]; 24 hours, RBF3 20 μM, DTT 2 mM): only weakly induces
- HER3 levels ([3]; 24 hours, RBF3 20 μM, DTT 2 mM): less so; also recorded: induces downregulation
- Akt phosphorylation ([3]; 24 hours, RBF3 20 μM, DTT 2 mM): suppresses
- PARP cleavage (cell death) ([3]; 24 hours, RBF3 20 μM, DTT 2 mM): only weakly induces
- EGFR levels ([3]; 24 hours, RBF3 20 μM, thapsigargin 400 nM, tunicamycin 500 ng/ml, DTT 2 mM): induces downregulation
- XBP1s expression [3, 12]: does not upregulate
- ATF4 and CHOP expression [3, 13]: does not upregulate
- IRE1-dependent XBP1 mRNA processing / splicing [4]: does not upregulate
- concentrations that activate UPR / induce a similar level of ER stress [5]: millimolar concentrations

Compound: NCCOB(c1ccccc1)c1ccccc1 [2-APB, 2-aminoethoxydiphenyl borate]
- RBF3-induced downregulation of HER3, Akt dephosphorylation, or PARP cleavage, with 2-APB [5]: did not alter
- RBF3-mediated GRP78 upregulation, with 2-APB [5]: reduced

Compound: O=CC[C@@H](O)[C@H](O)[C@H](O)CO [2-DOG, 2-deoxyglucose]
- HER3 expression ([1]; 24 hours, 2-DOG 4 mM): did not cause downregulation
- PARP cleavage ([1]; 24 hours, 2-DOG 4 mM): did not increase cell death
- UPR activation ([1]; 24 hours, 2-DOG 4 mM): strongly activated UPR
- Akt phosphorylation [1, 10]: did not cause downregulation
- ER stress response / UPR activation ([3]; 24 hours, DTT 2 mM): strongly activated UPR
- HER3 levels ([3]; 24 hours, RBF3 20 μM, DTT 2 mM): did not cause downregulation
- Akt phosphorylation ([3]; 24 hours, RBF3 20 μM, DTT 2 mM): did not cause downregulation
- PARP cleavage (cell death) ([3]; 24 hours, RBF3 20 μM, DTT 2 mM): did not increase cell death

Compound: C[C@@H]1C[C@@H]([C@H](O)CC2CC(=O)NC(=O)C2)C(=O)[C@@H](C)C1 [CHX, cycloheximide]
- HER2 expression, RBF3 with CHX ([1]; 24 hour, 20 μM RBF3, 20 μM CHX): partially restored
- RBF3-mediated UPR on co-treatment with CHX ([3]; 2-16 hrs): rapidly and persistently blocked
- DDA-mediated downregulation of EGFR or HER3, with CHX ([5]; 8 hours, 20 μM RBF3, 20 μM CHX): did not overcome
- RBF3-induced PARP cleavage and Akt dephosphorylation, with CHX ([5]; 8 hours, 20 μM RBF3, 20 μM CHX): partly overcame
- DDA activation of the ER stress response when protein synthesis is inhibited ([5]; 8 hours): reduced
- CHX blockade of RBF3-induced PARP cleavage ([5]; 24 hour treatment): less apparent

Compound: COc1cc2ncnc(Nc3ccc(F)c(Cl)c3)c2cc1OCCCN1CCOCC1 [Gefitinib]
- CHOP expression, combination with RBF3 [3, 14]: cooperated with RBF3 to upregulate
- concentration of RBF3 required to downregulate HER3 levels and Akt phosphorylation, on co-treatment [3, 14]: lowered

Compound: CS(=O)(=O)CCNCc1ccc(-c2ccc3ncnc(Nc4ccc(OCc5cccc(F)c5)c(Cl)c4)c3c2)o1 [Lapatinib]
- concentration of RBF3 required to downregulate HER3 levels and Akt phosphorylation, on co-treatment [3, 14]: lowered
- CHOP expression, Lapatinib with RBF3 [6]: cooperated with RBF3 to upregulate
- RBF3-induced UPR with respect to GRP78, XBP1s, or ATF4 levels, with Lapatinib [6]: only weakly potentiated

Compound: O=S(O)CCCCSSCCCCSSCCCCS(=O)O [NSC624205]
- HER3 expression in EGFR or HER2 overexpressing T47D cells [7]: reduced HER3 expression to very low levels; also recorded: more sensitive to downregulation

Compound: O=C(CCSSCCCCS(=O)[O-])OCC(COC(=O)CCSSCCCCS(=O)[O-])(COC(=O)CCSSCCCCS(=O)[O-])COC(=O)CCSSCCCCS(=O)[O-].[Na+].[Na+].[Na+].[Na+] (centres unmarked) [PEMP-DDA]
- HER2 expression, quantified, compared with RBF3 ([1]; same drug concentrations, 24 hours (FIG. 6B)): significantly more than RBF3
- PARP cleavage (cPARP), quantified, compared with RBF3 ([1]; same drug concentrations, 24 hours (FIG. 6C)): significantly more than RBF3
- cell viability (MTT) [8]: reduced BT474 cell viability more than RBF3
- cell viability (MTT) [9]: reduced cell viability in a concentration-dependent manner
- Akt phosphorylation, comparison of bi-, tri- and tetravalent DDAs [3, 15]: more than RBF3 or Bn-DDA
- HER3 levels, comparison of bi-, tri- and tetravalent DDAs [3, 15]: more than RBF3 or Bn-DDA

Compound: COc1ccc(C[C@H](N)C(=O)N[C@H]2[C@@H](O)[C@H](n3cnc4c(N(C)C)ncnc43)O[C@@H]2CO)cc1 [Puromycin, puromycin]
- DDA activation of the ER stress response when protein synthesis is inhibited ([5]; 8 hours): reduced

Compound: C/C=C(/C)C(=O)O[C@H]1C(C)=C2[C@H]([C@@H]1OC(=O)CCCCCCC)[C@@](C)(OC(C)=O)C[C@H](OC(=O)CCC)[C@@]1(O)[C@H]2OC(=O)[C@@]1(C)O [thapsigargin]
- ATF4 and CHOP expression [1, 11]: strongly upregulated
- PERK electrophoretic mobility ([1]; 24 hours, thapsigargin 400 nM): more strongly decreased
- Akt phosphorylation, wild type MEFs [2]: markedly suppressed
- ER stress response / UPR, wild type MEFs [2]: induced a robust UPR
- PARP cleavage, wild type MEFs [2]: strongly upregulated
- CHOP, ATF4, and GRP78 upregulation in eIF2α[S51A] knock-in MEFs [2]: significantly blunted
- PARP cleavage or XBP1s upregulation, effect of S51A eIF2a mutation [2]: did not affect
- XBP1s expression [3, 12]: more strongly than RBF3
- ATF4 and CHOP expression [3, 13]: more effectively than RBF3
- ATF4 and CHOP expression ([3]; thapsigargin 400 nM, tunicamycin 500 ng/ml, DTT 2 mM, listed as Thapsigargin): more strongly than RBF3

Compound: tunicamycin
- Akt phosphorylation, wild type MEFs [2]: markedly suppressed
- ER stress response / UPR, wild type MEFs [2]: induced a robust UPR
- PARP cleavage, wild type MEFs [2]: strongly upregulated
- CHOP, ATF4, and GRP78 upregulation in eIF2α[S51A] knock-in MEFs [2]: significantly blunted
- PARP cleavage or XBP1s upregulation, effect of S51A eIF2a mutation [2]: did not affect
- ATF4 and CHOP expression [3, 13]: more effectively than RBF3
